Experiments:
[1] = target: NET (Homo sapiens, UniProt P23975); experiment: NIMH PDSP radioligand binding, NET
Method: Radioligands and concentrations used for additional 45 CNS receptor binding assays are listed as supporting information (S1 Table). This work was performed by the National Institute of Mental Health Psychoactive Drug Screening Program (NIMH PDSP) as described previously.[26] Briefly target compounds were dissolved in DMSO and subjected to a primary screen at 10,000 nM concentration. […] Additional experimental details are available in the NIMH PDSP assay protocol book.

[2] = target: M2 (Homo sapiens, UniProt P08172); experiment: NIMH PDSP radioligand binding, M2
Chain of M2 (P08172 whole entry): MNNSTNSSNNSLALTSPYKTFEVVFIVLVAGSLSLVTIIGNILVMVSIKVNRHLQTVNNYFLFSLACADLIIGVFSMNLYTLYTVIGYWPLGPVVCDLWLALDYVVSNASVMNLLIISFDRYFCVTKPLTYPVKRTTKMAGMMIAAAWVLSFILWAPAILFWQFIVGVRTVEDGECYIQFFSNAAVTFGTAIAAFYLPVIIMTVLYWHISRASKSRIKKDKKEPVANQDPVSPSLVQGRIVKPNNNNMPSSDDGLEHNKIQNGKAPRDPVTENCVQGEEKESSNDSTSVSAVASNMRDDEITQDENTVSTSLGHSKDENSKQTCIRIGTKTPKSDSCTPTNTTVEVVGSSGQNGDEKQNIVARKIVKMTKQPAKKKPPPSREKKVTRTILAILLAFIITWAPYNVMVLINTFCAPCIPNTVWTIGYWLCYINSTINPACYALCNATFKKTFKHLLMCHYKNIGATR

[3] = system: AMPA receptor; experiment: AMPA receptor-mediated fEPSP in hippocampal slices (2-MXP selectivity); format: cell-based, rat
Method: (§1) Male Wistar rats (Crl:Wi; Charles River, UK) aged 9–10 wk were sacrificed by neck vertebral dislocation (schedule 1 method) according to the United Kingdom (Scientific Procedures) Act of 1986. […] The brain was cut parasagittally into 400 μm sections and hippocampal slices were removed, stored and placed in a submerged recording chamber at 28–30°C. Recordings of synaptic activity were made, analyzed and presented as described. A bipolar electrode was used to deliver stimuli (0.03 Hz) to the Schaffer collateral pathway to enable recording of field excitatory synaptic potentials (fEPSPs) using a glass microelectrode positioned in the stratum radiatum of area CA1. […] After 30 min of stable control responses, 1 and 10 μM solutions of the individual compounds were added to the perfusate for 3–12 h while recording the amplitude and area of the NMDAR-fEPSP on-line using WinLTP [31]. Single exponential curves were fitted to the graphs and curves extrapolated to show likely half-times and minimum plateau responses achieved with each concentration of the compounds. Raw data for all fEPSP experiments are provided as supporting information (S2, S3 and S4 Files).
To examine the specificity of DPH analogues, 2-MXP was superfused at 50 (n = 2) and 100 μM (n = 1) in the absence of AMPA and GABA receptor antagonists (Fig 3C).

[4] = system: NMDA receptor; experiment: NMDA receptor-mediated fEPSP (NMDAR-fEPSP) in CA1 of hippocampal slices; format: cell-based, rat; details: 10 μM
Method: as §1

Chain of NET (P23975 whole entry): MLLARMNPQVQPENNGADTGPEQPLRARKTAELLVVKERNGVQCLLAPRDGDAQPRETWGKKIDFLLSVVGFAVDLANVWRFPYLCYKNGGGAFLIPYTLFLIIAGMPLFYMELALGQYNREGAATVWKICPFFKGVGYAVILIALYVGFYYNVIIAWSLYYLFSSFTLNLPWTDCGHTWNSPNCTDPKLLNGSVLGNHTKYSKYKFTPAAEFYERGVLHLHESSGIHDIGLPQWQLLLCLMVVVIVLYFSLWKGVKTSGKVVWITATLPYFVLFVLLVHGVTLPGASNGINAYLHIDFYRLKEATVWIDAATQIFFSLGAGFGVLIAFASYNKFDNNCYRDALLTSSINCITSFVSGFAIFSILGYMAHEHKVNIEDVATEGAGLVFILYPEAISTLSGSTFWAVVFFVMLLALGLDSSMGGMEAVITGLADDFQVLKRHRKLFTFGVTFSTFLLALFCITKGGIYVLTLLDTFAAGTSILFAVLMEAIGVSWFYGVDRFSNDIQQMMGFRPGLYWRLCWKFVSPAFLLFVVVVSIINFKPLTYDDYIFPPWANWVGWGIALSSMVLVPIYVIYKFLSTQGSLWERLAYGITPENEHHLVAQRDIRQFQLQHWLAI

| SMILES | Ki [1] [µM] | Ki [2] [µM] | effect on AMPA receptor-mediated fEPSP ([3]; 50 and 100 μM, without AMPA and GABA receptor antagonists) | potency as antagonist of NMDAR relative to AMPA receptor responses ([3]; hippocampal slices) [times] | effect on NMDAR-fEPSP [4] |
| --- | --- | --- | --- | --- | --- |
| c1ccc(CC(c2ccccc2)N2CCCCC2)cc1 (centres unmarked) [DPH, diphenidine] | 2.81 | 3.7 |  |  |  |
| COc1ccccc1C(Cc1ccccc1)N1CCCCC1 (centres unmarked) [2-MXP, 2-methoxydiphenidine] |  |  | No reduction of the AMPA receptor-mediated fEPSP was seen | > 50 | abolished |
